Measurements published in patent publication US11555212B2, “Process for the production of sulfated phenolic compounds using modified Escerichia coli” (CysBio ApS, priority 2016, dated 2023).

Tests used:
[1] = biological target: T1, SULT1A1 from Rattus norvegicus (Rattus norvegicus, UniProt P17988); assay: Percent reduction of phenolic compounds by E. coli KRX expressing a sulfotransferase; assay type: cell-based; settings: M9, 0.1 mM IPTG, 0.1% rhamnose, compound 50 μM, overnight 37° C.
T1 construct: 1, 3, 4, 5, and 6 were cloned amplified from liver tissue cDNA; expressed in transfected cells
T1 sequence (P17988 whole entry): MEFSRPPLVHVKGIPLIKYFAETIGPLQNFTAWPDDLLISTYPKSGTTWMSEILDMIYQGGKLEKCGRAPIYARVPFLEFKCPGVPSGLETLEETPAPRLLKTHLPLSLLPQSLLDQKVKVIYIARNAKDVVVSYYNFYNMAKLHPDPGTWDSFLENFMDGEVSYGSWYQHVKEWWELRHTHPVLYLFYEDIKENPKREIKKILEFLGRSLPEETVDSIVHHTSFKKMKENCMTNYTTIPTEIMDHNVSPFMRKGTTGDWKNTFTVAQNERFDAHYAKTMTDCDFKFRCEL
Description: M9 medium containing 0.2% glucose, 0.1 mM IPTG, 0.1% rhamnose, and 100 μg/mL ampicillin was prepared.
The strains described above were grown in 2×YT medium with 100 μg/mL ampicillin overnight before their were used to inoculate the media by 50-fold dilution. The cultures were grown overnight with vigorous shaking at 37° C. […] The compounds were detected by UV absorbance except for 4-methylbelliferone, which was measured by fluorescence.

[2] = biological target: T2, SULT1A1 from rat (Rattus norvegicus) (Rattus norvegicus, UniProt P17988); assay: Percent reduction in concentration of phenolic compounds by E. coli expressing a sulfotransferase, compared to control strain; assay type: cell-based; settings: compared to the control strain, M9, 1 mM IPTG, single substrate at start concentration of Table 14, overnight 37° C.; for Percent reduction in concentration, SULT1A1 + CysDNCQ: E. coli BL21(DE3)pLysS expressing SULT1A1 rat + CysDNCQ; for Percent reduction in concentration, SULT1A1: E. coli BL21(DE3)pLysS expressing SULT1A1 rat
T2 construct: 1, 3, 4, 5, and 6 were cloned amplified from liver tissue cDNA; expressed in transfected cells
T2 sequence (P17988 whole entry): as above
Description: (§1) The concentration of p-courmaric acid (pHCA) and zosteric acid in the supernatant was quantified by high performance liquid chromatography (HPLC) and compared to chemical standards. HPLC was done on a Thermo setup using a HS-F5 column and mobile phases: 5 mM ammonium formate pH 4.0 (A) and acetonitrile (B) at 1.5 mL min-1, using a gradient elution starting at 5% B. From 0.5 min after injection to 7 min, the fraction of B increased linearly from 5% to 60%, and between 9.5 min and 9.6 the fraction of B decreased back to 5%, and remaining there until 12 min. pHCA and zosteric acid were quantified by measuring absorbance at 277 nm.
To further test the range of substrates that can be sulfated, we used strains carrying plasmids expressing SULT1A1 from rat (Rattus norvegicus) and SULT1E1 from chicken (Gallus gallus domesticus) (Example 1) cloned into the expression vector pETDuet-1, and cysDNCQ from E. coli cloned into expression vector pRSFDuet-1 (Example 2). The plasmids were introduced into the E. coli expression strain BL21(DE3)pLysS as described previously, selecting for transformants with appropriate antibiotics, namely 34 μg mL^−1 chloramphenicol for pLysS, 100 μg mL^−1 ampicillin for pETDuet-1-based vectors, and 100 μg mL^−1 kanamycin for pRSFDuet-1-based vectors. […] A control strain without a sulfotransferase gene or cysDNCQ operon was also examined.
The strains were precultured in 2×YT medium with appropriate antibiotics. 10 μL of these precultures were used to inoculate M9 media with 1 mM IPTG and none or a single substrate for sulfation. After overnight growth at 37° C., 300 rpm the supernatants were withdrawn and examined by HPLC as described in Example 1. The compounds were detected by UV absorbance.

[3] = tested on: SULT1E1 from chicken (Gallus gallus domesticus); assay: as above; assay type: cell-based; settings: E. coli BL21(DE3)pLysS expressing SULT1E1 chicken, compared to the control strain; M9, 1 mM IPTG, single substrate at start concentration of Table 14; overnight 37° C.
D. rerio SULT6B1 = assay: Percent reduction of compounds by E. coli KRX expressing distantly related sulfotransferases; assay type: cell-based, Danio rerio; settings: 100 μM resveratrol, 20 μM kaempferol or 3-hydroxy-4-methoxycinnamic acid
Description: The gene (sequence SEQ ID NO: 102) encoding SULT6B1 (sequence SEQ ID NO: 103) from Danio rerio was codon-optimized for E. coli and synthesized as in example 1.
(§2) The genes were cloned into the vector pETDuet-1 as described in Example 1, and the resulting vectors were transformed into E. coli KRX (obtained from Promega).

[4] = tested on: H. ochraceum DSM 14365 Hoch_6098; assay: as above; assay type: cell-based, Haliangium ochraceum DSM 14365; settings: E. coli KRX expressing H. ochraceum DSM 14365 Hoch_6098; 100 μM resveratrol, 20 μM kaempferol or 50 μL 3-hydroxy-4-methoxycinnamic acid
Description: The gene (sequence SEQ ID NO: 104) encoding Hoch_6098 (sequence SEQ ID NO: 105) from the bacterium Haliangium ochraceum DSM 14365 was codon-optimized for E. coli and synthesized as in example 1.
as §2

SULT1A1 Equus caballus = assay: Percent conversion of substrates by E. coli expressing a sulfotransferase; assay type: cell-based; settings: E. coli BL21(DE3)pLysS expressing SULT1A1 Equus caballus; M9; pHCA 100 μM, resveratrol 95 μM or kaempferol 87 μM; overnight 37° C.
Description: as §1
(§3) Different sulfotransferases were examined for their substrate specificities against three substrates. We tested the sulfotransferases mentioned in example 1, as well as additional ones. The genes encoding these were cloned as described in example 1 using the primers shown in the table below from cDNA libraries of the respective organisms, except for the SULT1A1 from rat (Rattus norvegicus) codon-optimized for E. coli (described above). The resulting vectors were transformed into BL21(DE3)pLysS.
(§4) The resulting strains were grown in M9 medium containing either 100 μM pHCA, 95 μM resveratrol or 87 μM kaempferol. The cultures were grown overnight at 37° C., 300 rpm. The following day the supernatants were isolated and examined by HPLC as described in example 1.

[5] = tested on: SULT1C1 Gallus gallus domesticus; assay: as above; assay type: cell-based; settings: E. coli BL21(DE3)pLysS expressing SULT1C1 Gallus gallus domesticus; M9; pHCA 100 μM, resveratrol 95 μM or kaempferol 87 μM; overnight 37° C.
Description: as §1, §3, §4

[6] = biological target: T3, SULT1A1 Rattus norvegicus (Rattus norvegicus, UniProt P17988); assay: as above; assay type: cell-based; settings: M9, pHCA 100 μM, resveratrol 95 μM or kaempferol 87 μM, overnight 37° C.
T3 construct: 1, 3, 4, 5, and 6 were cloned amplified from liver tissue cDNA; expressed in transfected cells
T3 sequence (P17988 whole entry): as above
Description: as §1, §3, §4

[7] = biological target: T4, SULT1A1 Canis lupus familiaris (Canis lupus familiaris, UniProt Q29476); assay: as above; assay type: cell-based; settings: E. coli BL21(DE3)pLysS expressing SULT1A1 Canis lupus familiaris; M9; pHCA 100 μM, resveratrol 95 μM or kaempferol 87 μM; overnight 37° C.
T4 construct: 1, 3, 4, 5, and 6 were cloned amplified from liver tissue cDNA; expressed in transfected cells; host or cells: E. coli BL21(DE3)pLysS
T4 sequence (Q29476 whole entry): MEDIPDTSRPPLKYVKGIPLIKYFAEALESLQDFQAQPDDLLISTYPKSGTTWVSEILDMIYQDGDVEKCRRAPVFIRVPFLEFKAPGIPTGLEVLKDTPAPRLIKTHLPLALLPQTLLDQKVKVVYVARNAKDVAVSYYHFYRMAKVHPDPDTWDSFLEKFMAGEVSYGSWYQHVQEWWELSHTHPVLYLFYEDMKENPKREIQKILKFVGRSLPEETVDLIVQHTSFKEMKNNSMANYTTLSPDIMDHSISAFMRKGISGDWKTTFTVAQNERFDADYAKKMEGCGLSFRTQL
Description: as §1, §3, §4

[8] = tested on: SULT1E1 Gallus gallus domesticus; assay: as above; assay type: cell-based; settings: E. coli BL21(DE3)pLysS expressing SULT1E1 Gallus gallus domesticus; M9; pHCA 100 μM, resveratrol 95 μM or kaempferol 87 μM; overnight 37° C.
Description: as §1, §3, §4

[9] = tested on: SULT1A1 Sus scrofa domesticus; assay: as above; assay type: cell-based; settings: E. coli BL21(DE3)pLysS expressing SULT1A1 Sus scrofa domesticus; M9; pHCA 100 μM, resveratrol 95 μM or kaempferol 87 μM; overnight 37° C.
Description: as §1, §3, §4

SULT1A1 human = biological target: T5, SULT1A1 human (Homo sapiens, UniProt P50225, V223M); assay: as above; assay type: cell-based; settings: E. coli BL21(DE3)pLysS expressing SULT1A1 human; M9; pHCA 100 μM, resveratrol 95 μM or kaempferol 87 μM; overnight 37° C.
T5 construct: expressed in transfected cells; host or cells: E. coli BL21(DE3)pLysS
T5 sequence (P50225 whole entry V223M): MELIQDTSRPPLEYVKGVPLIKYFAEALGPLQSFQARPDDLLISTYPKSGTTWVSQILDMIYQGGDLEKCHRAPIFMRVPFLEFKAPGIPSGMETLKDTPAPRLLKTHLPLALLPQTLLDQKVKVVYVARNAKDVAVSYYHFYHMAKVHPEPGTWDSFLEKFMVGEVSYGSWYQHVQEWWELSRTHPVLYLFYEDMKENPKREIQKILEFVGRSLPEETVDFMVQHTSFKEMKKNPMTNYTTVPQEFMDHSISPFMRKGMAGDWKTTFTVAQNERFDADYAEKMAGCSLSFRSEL
Description: as §1, §3, §4

D. rerio SULT1ST1 = biological target: T6, D. rerio SULT1ST1 (Danio rerio, UniProt Q6PH37); assay: Percent reduction of compounds by E. coli KRX expressing distantly related sulfotransferases; assay type: cell-based; settings: 100 μM resveratrol, 20 μM kaempferol or 3-hydroxy-4-methoxycinnamic acid
T6 construct: expressed in transfected cells; host or cells: E. coli KRX (Promega), vector pETDuet-1
T6 sequence (Q6PH37 1-299): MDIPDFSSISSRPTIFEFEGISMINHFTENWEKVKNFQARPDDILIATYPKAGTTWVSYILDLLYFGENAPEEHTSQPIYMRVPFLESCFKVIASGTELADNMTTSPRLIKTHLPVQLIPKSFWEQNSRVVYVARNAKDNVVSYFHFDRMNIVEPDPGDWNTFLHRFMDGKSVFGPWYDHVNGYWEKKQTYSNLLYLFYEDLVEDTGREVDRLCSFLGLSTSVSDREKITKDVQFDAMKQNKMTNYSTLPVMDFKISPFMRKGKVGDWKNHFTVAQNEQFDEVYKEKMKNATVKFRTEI

[10] = E. coli BL21(DE3)pLysS expressing SULT1A1 Rattus norvegicus (Codon-optimized for E. coli)
[11] = E. coli BL21(DE3)pLysS expressing SULT1A1 Rattus norvegicus

Molecule	Percent reduction, SULT1A1 [1] [%]	Percent reduction in concentration, SULT1A1 + CysDNCQ [2] [%]	Percent reduction in concentration, SULT1A1 [2] [%]	Percent reduction in concentration, SULT1E1 [3] [%]	further results
4-ethylguaiacol	50	–	–	–	–
O=C(O)CCc1ccc(O)cc1 [3-(4-Hydroxyphenyl)propionic acid]	–	7	3	1	–
COc1ccc(C=CC(=O)O)cc1O [3-Hydroxy-4-methoxycinnamic acid]	–	62	51	–	–
O=C(O)C(=O)Cc1ccc(O)cc1 [4-Hydroxyphenylpyruvic acid, 4-hydroxyphenylpyruvic acid]	–	64	47	100	–
CC(=O)Nc1ccc(O)cc1 [4-acetamidophenol, reference compound]	–	30	24	10	–
CCc1ccc(O)cc1 [4-ethylphenol]	100	–	–	–	–
O=C(O)c1ccc(O)cc1 [4-hydroxybenzoic acid]	–	6	5	4	–
Cc1cc(=O)oc2cc(O)ccc12 [4-methylbelliferone]	100	–	–	–	–
O=[N+]([O-])c1ccc(O)cc1 [4-nitrophenol]	30	–	–	–	–
C=Cc1ccc(O)cc1 [4-vinylphenol]	100	–	–	–	–
O=c1cc(-c2ccc(O)cc2)oc2cc(O)cc(O)c12 [Apigenin]	–	99	41	98	–
COc1cc(/C=C/C(=O)O)ccc1O [Ferulic acid, ferulic acid]	–	100	72	67	–
O=c1cc(-c2ccc(O)c(O)c2)oc2cc(O)cc(O)c12 [Luteolin]	–	37	27	0	–
O=C1C[C@@H](c2ccc(O)cc2)Oc2cc(O)cc(O)c21 [Naringenin]	60	–	–	–	–
O=c1c(O)c(-c2ccc(O)c(O)c2)oc2cc(O)cc(O)c12 [Quercetin]	–	81	75	74	–
COc1cc(/C=C/C(=O)O)cc(OC)c1O [Sinapic acid, sinapic acid]	31	–	–	–	–
COc1cc(C(=O)O)ccc1O [Vanillic acid, vanillic acid]	–	39	33	0	–
O=c1c(O)c(-c2ccc(O)c(O)c2)oc2cc(O)ccc12 [fisetin]	–	100	98	98	–
O=c1c(O)c(-c2ccc(O)cc2)oc2cc(O)cc(O)c12 [kaempferol, Kaempferol]	–	–	–	–	Percent reduction (D. rerio SULT6B1): 44%; Percent reduction [4]: 100%; Percent conversion of the substrate (SULT1A1 Equus caballus): 96%; Percent conversion of the substrate [5]: 80%; Percent conversion of the substrate [6, 10]: 38%; Percent conversion of the substrate [6, 11]: 95%; Percent conversion of the substrate [7]: 60%; Percent conversion of the substrate [8]: 47%; Percent conversion of the substrate [9]: 45%; Percent conversion of the substrate (SULT1A1 human): 97%
Oc1ccc(C=Cc2cc(O)cc(O)c2)cc1 [resveratrol]	–	–	–	–	Percent reduction (D. rerio SULT1ST1): 80%; Percent reduction [4]: 7%; Percent conversion of the substrate (SULT1A1 Equus caballus): 100%; Percent conversion of the substrate [5]: 100%; Percent conversion of the substrate [6, 10]: 58%; Percent conversion of the substrate [6, 11]: 93%; Percent conversion of the substrate [7]: 61%; Percent conversion of the substrate [8]: 100%; Percent conversion of the substrate [9]: 88%; Percent conversion of the substrate (SULT1A1 human): 36%
